Values quoted from earlier work as cited in patent US20100173012A1 (priority 2008, published 2010).

Tested on: Fusarium graminearum
Conditions: previous work of the inventors
In the case of `O=C(O)CN(CC(=O)O)c1ccccc1OCCOc1ccccc1N(CC(=O)O)CC(=O)O` [BAPTA], the “use to reduce ascospore discharge in F. graminearum” value (“use to reduce ascospore discharge” for short) is given as “successfully used”. For `CCN(CC)CCCCCCCCOC(=O)c1cc(OC)c(OC)c(OC)c1` [TMB8], the “use to reduce ascospore discharge” value is listed as “successfully used”. In the case of `Cc1ccc(S(=O)(=O)NC(=O)NN2CCCCCC2)cc1` [Tolazamide], the “use to reduce ascospore discharge” value is listed as “successfully used”. For `COc1ccc(Cl)cc1C(=O)NCCc1ccc(S(=O)(=O)NC(=O)NC2CCCCC2)cc1` [glyburide], the “use to reduce ascospore discharge” value is listed as “successfully used”. For `OCC(O)CO` [glycerol], the “use to reduce ascospore discharge” value is listed as “successfully used”. For `OC[C@@H](O)[C@@H](O)[C@H](O)[C@H](O)CO` [mannitol], the “use to reduce ascospore discharge” value is listed as “successfully used”. For `COc1ccc(CCN(C)CCCC(C#N)(c2ccc(OC)c(OC)c2)C(C)C)cc1OC` (stereo not shown) [verapamil], the “use to reduce ascospore discharge” value is given as “successfully used”.
